Data as given in US9040568B2, “Pharmaceutical compositions for the treatment of pain” (AbbVie Inc., priority 2009, dated 2015).

Assays:
[1] = tested on: nerve injury induced mechanical allodynia; experiment: Chung model of neuropathic pain (L5-L6 spinal nerve ligation, tactile allodynia, von Frey); format: in vivo, rat
Experimental: To assess whether α4β2 PAM can increase antinociceptive responses of agonists in vivo, the following study was conducted. The materials and methods used to accomplish the study follow.
Male Sprague-Dawley rats (Charles River, Wilmington, Mass.) weighing 120-150 grams at time of surgery were utilized. These animals were group housed in AAALAC approved facilities at Abbott Laboratories in a temperature-regulated environment with lights on between 0700 and 2000 hours. Food and water was available ad libitum except during testing. All animal handling and experimental protocols were approved by an institutional animal care and use committee (IACUC). All experiments were performed during the light cycle.
5[(2R)-Azetidin-2-ylmethoxy]-2-chloropyridine (Compound A, 1-100 nmol/kg) and 3-(3-pyridin-3-yl)-1,2,4-oxadiazol-5-yl)benzonitrile (α4β2 PAM Compound 1, 1-35 μmol/kg, i.p.) was used. Compound A and D was prepared in saline and injected in solution in a volume of 2 ml/kg body weight 30 minutes before behavioral evaluation. Compound 1,3-(3-(pyridin-3-yl)-1,2,4-oxadiazol-5-yl)benzonitrile, was prepared in 30% hydroxybetacyclodextrin and injected in solution in a volume of 4 ml/kg body weight immediately before Compound A. For studies with Compound D, the doses tested ranged from 0.3-30 μmol/kg i.p.
To produce neuropathic pain, tight ligation of the L5-L6 spinal nerves was performed. As previously described in detail by Kim and Chung (Kim S H and Chung J M (1992), Pain 50: 355), following sterilization procedures, a 1.5 cm incision was made dorsal to the lumbosacral plexus. The paraspinal muscles (left side) were separated from the spinous processes, the L5 and L6 spinal nerves isolated, and tightly ligated with 3-0 silk thread. Following hemostasis, the wound was sutured and coated with antibiotic ointment. The rats were allowed to recover and then placed in a cage with soft bedding for 7-14 days before behavioral testing for mechanical allodynia.
Tactile allodynia was measured using calibrated (force; g) von Frey filaments (Stoelting, Wood Dale, Ill.). Briefly, rats were placed into individual plexiglass containers and allowed to acclimate for 15-20 minutes before testing. Withdrawal threshold was determined by increasing and decreasing stimulus intensity and estimated using a Dixon non-parametric test (Chaplan et al., 1994; Chaplan S R, Bach F W, Pogrel J W, Chung J M and Yaksh T L (1994) J Neurosci Methods 53:55-63). Only rats with threshold scores<4.5 g were considered allodynic and utilized in further testing. A percent of maximal possible effect (% M.P.E.) of the tested compounds was calculated according to the formula: ([post-drug threshold]-[baseline threshold])/([maximum threshold]-[baseline threshold])×100%, where maximum threshold was equal to 15 g.
Analysis of the in vivo data was carried out using analysis of variance. Where appropriate, Bonferroni's Multiple Comparison Test was used for post-hoc analysis. The level of significance was set at p less than 0.05. Data are presented as mean±S.E.M.

[2] = target: T1, human α3β4 nicotinic acetylcholine receptor subtype expressed in HEK-293 cells (Homo sapiens, UniProt P30926+P32297); experiment: Calcium flux assay (FLIPR) in HEK-293 cells expressing human α3β4; format: cell-based; conditions: agonists Compound A and Compound B
T1 construct: expressed in transfected cells
Experimental: Calcium Flux Assays Using Cells Expressing nAChR Subtypes
Human embryonic kidney (HEK) 293 cells stably expressing human α4β2 or α3β4 combinations are grown to confluency in 162 cm^2 tissue culture flasks in DMEM media supplemented with 10% FBS and 25 μg/ml zeocin and 200 μg/ml hygromycin B. IMR-32 neuroblastoma cells (ATCC) are grown to confluency in 162 cm^2 tissue culture flasks in minimum essential media supplemented with 10% FBS and 1 mM sodium pyruvate, 1% non-essential amino acids and 1% antibiotic-antimycotic. […] Calcium flux was measured using calcium-3 assay kit (Molecular Devices, Sunnyvale, Calif.) or fluo-4 (Invitrogen). […] The cells were loaded with 100 μl of the dye per well and incubated at room temperature for up to one hour for HEK 293 clonal stable cell lines or 30 minutes-45 minutes at 37° C. for IMR-32 cells Fluorescence measurements were read simultaneously from all the wells by a Fluorometic Imaging Plate Reader (FLIPR) at an excitation wavelength of 480 nm and an emission wavelength of 520 nm. Baseline fluorescence was measured for the first 6 seconds at which 3× concentrations of modulator/test compounds were added to the cell plate at 50 μl and incubated for five minutes. The fluorescence intensity was captured every second for the first 1 minute followed by every 5 seconds for an additional 4 minutes. […]

T1 sequence (P32297 32-505): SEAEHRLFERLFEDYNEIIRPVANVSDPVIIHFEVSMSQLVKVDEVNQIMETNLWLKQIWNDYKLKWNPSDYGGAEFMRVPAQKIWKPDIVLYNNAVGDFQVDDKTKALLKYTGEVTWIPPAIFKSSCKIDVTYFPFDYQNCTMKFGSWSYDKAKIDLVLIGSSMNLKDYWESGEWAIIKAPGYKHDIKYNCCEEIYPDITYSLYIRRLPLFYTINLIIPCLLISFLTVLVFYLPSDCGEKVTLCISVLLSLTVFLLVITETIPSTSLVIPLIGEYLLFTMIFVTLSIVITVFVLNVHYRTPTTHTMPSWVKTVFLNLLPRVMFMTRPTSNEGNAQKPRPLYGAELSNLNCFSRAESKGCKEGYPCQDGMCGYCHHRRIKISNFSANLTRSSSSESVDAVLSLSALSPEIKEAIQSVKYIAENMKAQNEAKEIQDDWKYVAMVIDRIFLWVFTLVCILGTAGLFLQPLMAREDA
T1 sequence (P30926 22-498): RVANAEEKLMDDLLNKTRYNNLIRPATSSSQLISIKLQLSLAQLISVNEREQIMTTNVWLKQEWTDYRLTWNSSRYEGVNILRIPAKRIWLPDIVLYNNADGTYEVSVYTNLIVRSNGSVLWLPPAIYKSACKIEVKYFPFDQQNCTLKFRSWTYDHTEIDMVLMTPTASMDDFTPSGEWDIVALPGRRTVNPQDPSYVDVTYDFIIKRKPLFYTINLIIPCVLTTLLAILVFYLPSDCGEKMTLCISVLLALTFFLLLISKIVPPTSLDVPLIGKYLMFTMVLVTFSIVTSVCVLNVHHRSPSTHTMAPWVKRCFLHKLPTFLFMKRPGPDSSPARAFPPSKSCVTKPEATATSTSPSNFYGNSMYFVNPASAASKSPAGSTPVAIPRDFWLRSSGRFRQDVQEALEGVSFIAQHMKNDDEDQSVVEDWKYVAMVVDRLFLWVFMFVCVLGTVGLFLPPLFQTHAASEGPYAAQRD

| SMILES | efficacy in neuropathic pain ([1]; Compound A 1 nmol/kg alone) | efficacy in neuropathic pain ([1]; Compound A 1 nmol/kg combined with varying doses of Compound 1) | mechanical paw withdrawal threshold (PWT) ([1]; Compound A co-administered with Compound 1 (PAM)) | effect of the PAM on the concentration responses to the agonists [2] | effect on the dose response curve of Compound A ([1]; Compound 1 3.5 μmol/kg with various doses of Compound A) | efficacy in neuropathic pain ([1]; administered alone) |
| --- | --- | --- | --- | --- | --- | --- |
| Clc1ccc(OC[C@H]2CCN2)cn1 [Compound A, 5-[(2R)-azetidin-2-ylmethoxy]-2-chloropyridine] | ineffective | dose-dependent increase in efficacy | 12.1 ± 0.5 g | – | – | – |
| N#Cc1cccc(-c2nc(-c3cccnc3)no2)c1 [Example 1, 3-(3-(pyridin-3-yl)-1,2,4-oxadiazol-5-yl)benzonitrile] | – | – | – | unable to affect the concentration responses to the agonists | left-shifting the dose response curve of Compound A | ineffective |
